Source: patent publication US20080107787A1, “Anti-Diabetic Composition with High-Potency Sweetener” (THE COCA-COLA COMPANY, priority 2006, published 2008)

Legend:
[1] = type: physicochemical
Method: A solution of rebaudioside A (>97% pure by HPLC) was prepared in double distilled water (12.5 gm in 50 mL, 25% concentration) by stirring the mixture at 40° C. for 5 minutes. An amorphous form of rebaudioside A was formed by immediately using the clear solution for spray drying with the Lab-Plant spray drier SD-04 instrument (Lab-Plant Ltd., West Yorkshire, U.K.). The solution was fed through the feed pump into the nozzle atomizer which atomized it into a spray of droplets with the help of a constant flow of nitrogen/air. […] This dry powder (11-12 g, H2O 6.74%) was discharged continuously from the drying chamber and was collected in a bottle.

[2] = Rate of dissolution in H2O at 25° C. of rebaudioside A polymorph and amorphous forms; type: physicochemical
Text: The purification of rebaudioside A by crystallization as described above results in the formation of at least three different polymorphs: Form 1: a rebaudioside A hydrate; Form 2: an anhydrous rebaudioside A; and Form 3: a rebaudioside A solvate. In addition to the at least three polymorph forms of rebaudioside A, the purification of rebaudioside A may result in the formation of an amorphous form of rebaudioside A, Form 4. The aqueous organic solution and temperature of the purification process influence the resulting polymorph and amorphous forms in the substantially pure rebaudioside A composition. FIGS. 1-5 are exemplary powder x-ray diffraction (XRPD) scans of the polymorph and amorphous forms of rebaudioside A: Form 1 (hydrate), Form 2 (anhydrate), Form 3A (methanol solvate), Form 3B (ethanol solvate), and Form 4 (amorphous), respectively.

| solubility in water at room temperature [1] [%] | Rate of dissolution in H2O at 25° C. ([2]; graded Intermediate or High) | Rate of dissolution in H2O at 25° C. ([2]; graded Very low) | Substance |
| --- | --- | --- | --- |
| > 35.0 | High (>35%/5 %/5 minutes |  | rebaudioside A [Form 4] |
|  |  | Very low (<0.2%/60 %/60 minutes | rebaudioside A [Form 1] |
|  | High (>30%/5 %/5 minutes |  | rebaudioside A [Form 3] |
|  | Intermediate (<30%/5 %/5 minutes |  | rebaudioside A [Form 2] |
